Values of other authors in patent publication US20200316037A1, “COMPOSITIONS AND METHODS FOR TREATING NEOPLASIA” (THE ANGIOGENESIS FOUNDATION, priority 2017, published 2020).
Read-outs that look alike come from different tables or passages of the source.

Legend:
[1] = for Undesirable Local Reactions (combined stinging, burning, itching, or irritation/dermatitis/rash): monotherapy at normal concentration and standard dose frequency; for Undesirable Local Reactions (combined itching, burning, bleeding, stinging, pain/soreness, tenderness, irritation): monotherapy
[2] = test system: superficial Basal Cell Carcinoma (sBCC); settings: two double-blind vehicle-controlled studies; 5x/week x 6 weeks
BCC = settings: imiquimod open-label clinical study N=162

Structure (SMILES): C=C1/C(=C\C=C2/CCC[C@]3(C)[C@@H]([C@H](C)/C=C/[C@@H](O)C4CC4)CC[C@@H]23)C[C@@H](O)C[C@@H]1O [Calcipotriene 0.005%, Calcipotriene]
- Undesirable Local Reactions (combined stinging, burning, itching, or irritation/dermatitis/rash) [1]: 13-45%

Structure (SMILES): CCCCC(=O)O[C@]1(C(=O)CO)CC[C@H]2[C@@H]3CCC4=CC(=O)CC[C@]4(C)[C@H]3[C@@H](O)C[C@@]21C [Hydrocortisone valerate 0.2%, Hydrocortisone valerate]
- Undesirable Local Reactions (combined stinging, burning, itching, or irritation/dermatitis/rash) [1]: 7%

Structure (SMILES): CC(C)Cn1cnc2c(N)nc3ccccc3c21 [Imiquimod 5%, Imiquimod]
- sBCC clearance [2]: 75%
- Undesirable Local Reactions (combined itching, burning, bleeding, stinging, pain/soreness, tenderness, irritation) ([1]; 2x/week study): 39%
- Undesirable Local Reactions (combined itching, burning, bleeding, stinging, pain/soreness, tenderness, irritation) ([1]; 3x/week study): 63%
- Undesirable Local Reactions (combined itching, burning, bleeding, stinging, pain/soreness, tenderness, irritation) ([1]; 5x/week study): 28%
- Incidence of inflammation ([1]; monotherapy per package label, imiquimod clinical studies): ≤ 97%
- Recurrence Rate of BCC (BCC; Month 0): 10%
- Recurrence Rate of BCC (BCC; Month 3): 13%
- Recurrence Rate of BCC (BCC; Month 6): 15%
- Recurrence Rate of BCC (BCC; Month 12): 16%
- Recurrence Rate of BCC (BCC; Month 24): 21%
- Recurrence Rate of BCC (BCC; Post-treatment): 0%

Structure (SMILES): CC1=C(/C=C/C(C)=C/C=C/C(C)=C/C(=O)O)C(C)(C)CCC1 [Tretinoin 0.1%, Tretinoin]
- Undesirable Local Reactions (combined stinging, burning, itching, or irritation/dermatitis/rash) [1]: 15%
